Entries after “also recorded” stand apart in the source; their conditions may differ. Read-outs that look alike come from different tables or passages of the source. Blank lines part the entries; values can stand above or below the compound they belong to.
Experiments:
[1] = molecular target: AD homogenates (Homo sapiens, UniProt P05067); conditions: cited from earlier work
[2] = normal mice, cited from earlier work
[3] = comparison values, no reference given; cited from earlier work
[4] = molecular target: cortical Aβ plaques in AD frontal cortex sections (Homo sapiens, UniProt P05067); experiment: Autoradiography on AD frontal cortex sections with IHC correlation; format: binding; conditions: 7A […] with 18F-7B 10 nM
cortical Aβ plaques in AD frontal cortex sections, sequence (P05067 672-711 limits assumed): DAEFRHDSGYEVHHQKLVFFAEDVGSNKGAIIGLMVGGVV
Description: Frozen AD frontal cortex sections (12 μm) were obtained using a TBS Minotome PLUS Cryostat. The tissue sections were thaw-mounted onto Superfrost Plus (Fisherbrand 12-550-15 (Fisherbrand, Leicestershire, UK)) microscope slides, allowed to air dry for 10 to 15 min, and stored at −80°C. For autoradiography, brain sections were brought to room temperature for 5 min and then pre-incubated in assay buffer (30 mM Tris-HCl, pH 7.4 + 0.1% BSA) for 10 min at RT. Sections were incubated with ^18F-7B (300 μL/slide; 10 nM) in the assay buffer for 60 min at room temperature. For determining nonspecific binding, adjacent sections were incubated in the additional presence of 2.5 μM cold ligand 7A. Sections were then washed at RT for 1 min in 30 mM Tris-HCl pH 7.4, 2 min in 70% ethanol/30 mM Tris-HCl, 1 min in 30% ethanol/30 mM Tris-HCl, and 1 min in 30 mM Tris-HCl (washing protocol using literature precedents. Sections were then dried and exposed to phosphor-imaging screen (BAS-MS 2025) for 30 min. Autoradiography images were obtained on a Fuji Bio-Imaging System FLA-7000 (Tokyo, Japan) and analyzed using MultiGauge software (Fuji, Tokyo, Japan). Following exposure to a phosphor-imaging screen, the sections were then blocked for 60 min at room temperature with 3% milk-0.25% Tween 20-PBS buffer. […]

[5] = system: Aβ plaques; set-up: method as in PMID 25003699; conditions: transgenic mice; cited from earlier work
[6] = system: Aβ plaques in autopsy-confirmed AD human tissues; set-up: method as in PMID 25003699; conditions: cited from earlier work

AD homogenates, sequence (P05067 672-711 limits assumed): as above

SMILES: CNc1ccc(/C=C/c2ccc(OCCOCCOCCF)cc2)cc1 [Florbetaben]
BP [1]: 152
Bmax [1]: 2,431 nM
Kd [1]: 16 nM

SMILES: CNc1ccc(/C=C/c2ccc(OCCOCCOCCF)nc2)cc1 [Florbetapir, (E)-4-(2-(6-(2-(2-(2-^18F-fluoroethoxy)ethoxy)-ethoxy)pyridin-3-yl)vinyl)-N-methyl benzenamine]
Brain uptake ([2]; 2 min): 7.33 ± 1.54 %ID/g
Brain uptake ([2]; 2 h): 1.80 ± 0.07 %ID/g
brain uptake ratio 2 min/2 h [2]: 4.07
log P [3]: 2.4

inhibition of 18F-7B binding in autoradiography [4]: binding was inhibited
SMILES: CN(C)c1ccc(/C=C/c2nc3ccc(OCCF)cc3s2)cn1 [7A, (E)-5-(2-(6-(2-fluoroethoxy)benzo[d]thiazol-2-yl)vinyl)-N,N-dimethylpyridin-2-amine]
BBB penetration and plaque labeling by multiphoton imaging [5]: could traverse the BBB to label parenchymal plaques in the brain of transgenic mice
plaque types labeled [6]: labels diffuse plaques in autopsy-confirmed AD human tissues; also recorded: binding to both diffuse and fibrillary plaques
